According to ChEMBL document CHEMBL1201862, “PubChem BioAssay data set” (2004):
Activity calls are given as the source filed them.

What was measured:
[1] = target: 3-phosphoinositide-dependent protein kinase 1 (Homo sapiens, UniProt O15530); format: functional;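 further: value comes from the Navigating the Kinome panel, PDPK1 member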
[2] = target: Serine/threonine-protein kinase BRSK1 (Homo sapiens, UniProt Q8TDC3); format: functional;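 further: measured within a kinome-wide kinase panel, with the target listed as KIAA1811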
[3] = target: Megakaryocyte-associated tyrosine-protein kinase (Homo sapiens, UniProt P42679); format: functional;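 further: affinity measured as one member of a kinase panel (Navigating the Kinome) against MATK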
[4] = target: Mitogen-activated protein kinase 12 (Homo sapiens, UniProt P53778); format: functional;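 further: measured as one member of a kinome-wide kinase profiling panel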
[5] = target: Cyclin-dependent kinase 5 (Homo sapiens, UniProt Q00535); format: functional;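 further: CDK5 measured as one member of a kinase profiling panel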
[6] = target: Protein-tyrosine kinase 6 (Homo sapiens, UniProt Q13882); format: functional
[7] = target: Receptor tyrosine-protein kinase erbB-2 (Homo sapiens, UniProt P04626); test: Navigating the Kinome. Panel member name: ERBB2; format: functional
[8] = target: Proto-oncogene tyrosine-protein kinase ROS (Homo sapiens, UniProt P08922); format: functional;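 further: ROS1 tested as one member of a kinome-wide kinase panel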
[9] = target: Ribosomal protein S6 kinase alpha-3 (Homo sapiens, UniProt P51812); format: functional;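 further: measured within a kinome-wide profiling panel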
[10] = target: Calcium/calmodulin-dependent protein kinase type 1 (Homo sapiens, UniProt Q14012); format: functional
[11] = target: Serine/threonine-protein kinase PAK 1 (Homo sapiens, UniProt Q13153); format: functional
[12] = target: Serine/threonine-protein kinase pim-2 (Homo sapiens, UniProt Q9P1W9); format: functional;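 further: value comes from a broad kinase panel profiling study in which PIM2 was one of the panel members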
[13] = target: MAP/microtubule affinity-regulating kinase 3 (Homo sapiens, UniProt P27448); format: functional;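 further: MARK3 affinity measured as one member of a kinome panel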
[14] = target: STE20-like serine/threonine-protein kinase (Homo sapiens, UniProt Q9H2G2); format: functional
[15] = target: Serine/threonine-protein kinase PLK3 (Homo sapiens, UniProt Q9H4B4); format: functional
[16] = target: Serine/threonine-protein kinase DCLK1 (Homo sapiens, UniProt O15075); format: functional;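 further: affinity for DCLK1 (listed as DCAMKL1) measured as one member of a kinome-wide kinase profiling panel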
[17] = target: RAC-alpha serine/threonine-protein kinase (Homo sapiens, UniProt P31749); format: functional;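 further: AKT1 affinity measured as one member of a kinome-wide kinase profiling panel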
[18] = target: Mitogen-activated protein kinase 1 (Homo sapiens, UniProt P28482); format: functional
[19] = target: cGMP-dependent protein kinase 1 (Homo sapiens, UniProt Q13976); format: functional;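 further: value from a kinome panel screen with PRKG1 as the panel member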
[20] = target: Protein kinase C iota type (Homo sapiens, UniProt P41743); format: functional;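 further: measured within a kinome-wide kinase panel, PRKCI as panel member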
[21] = target: Cyclin-dependent kinase 1 (Homo sapiens, UniProt P06493); format: functional;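 further: Kinome-wide panel profiling, with the target listed as panel member CDC2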
Ephrin type-A receptor 2 = Ephrin type-A receptor 2 (Homo sapiens, UniProt P29317); format: functional;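 further: EPHA2 tested as one member of a kinome-wide kinase panel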
[22] = target: RAC-gamma serine/threonine-protein kinase (Homo sapiens, UniProt Q9Y243); format: functional
[23] = C. albicans growth with fluconazole, confirmation, fluorescence, retest (AID 2467); format: functional, cell-based
Streptococcus = test: Group A Streptococcus viability loss, dose response, counter-screen for streptokinase expression inhibitor project, luminescence, BacTiterGlo (AID 1915); format: functional, organism-based;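 further: potency for reduction of bacterial viability or growth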
Streptokinase A = target: T1, Streptokinase A (Streptococcus pyogenes serotype M1, UniProt P10520); test: S. pyogenes streptokinase expression inhibitors, potency, dose response, plasminogen activation absorbance, OD405 (AID 1914); format: functional, Streptococcus pyogenes M1 GAS;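 further: secreted streptokinase activity via plasminogen activation per viability signal from cell pellet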
T1 sequence (P10520 whole entry): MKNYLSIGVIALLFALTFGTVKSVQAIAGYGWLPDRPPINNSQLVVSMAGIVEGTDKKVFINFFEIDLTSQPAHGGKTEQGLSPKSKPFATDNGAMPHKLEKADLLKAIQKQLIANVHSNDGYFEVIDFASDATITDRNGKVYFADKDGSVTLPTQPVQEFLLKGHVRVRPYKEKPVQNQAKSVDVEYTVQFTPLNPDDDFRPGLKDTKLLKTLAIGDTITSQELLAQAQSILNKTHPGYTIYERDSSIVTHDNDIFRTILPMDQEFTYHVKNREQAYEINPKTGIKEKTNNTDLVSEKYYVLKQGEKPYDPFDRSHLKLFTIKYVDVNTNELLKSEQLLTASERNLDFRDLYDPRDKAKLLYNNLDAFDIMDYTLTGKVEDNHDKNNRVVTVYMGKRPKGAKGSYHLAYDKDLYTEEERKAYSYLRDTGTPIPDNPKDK

[24] = Shn3 3'UTR reporter inhibitors, dose response, cell-based, Clone20 osteoblasts, firefly luciferase, cherry-picked (AID 624132); format: functional;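 further: firefly luciferase luminescence from reporter carrying the Shn3 3'UTR in osteoblasts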
[25] = target: T2, Replicative DNA helicase DnaB (Mycobacterium tuberculosis, UniProt P9WMR3); test: DnaB intein splicing inhibitors, dose response, biochemical, cell-free fluorescence (AID 449749); format: functional
T2 sequence (P9WMR3 whole entry): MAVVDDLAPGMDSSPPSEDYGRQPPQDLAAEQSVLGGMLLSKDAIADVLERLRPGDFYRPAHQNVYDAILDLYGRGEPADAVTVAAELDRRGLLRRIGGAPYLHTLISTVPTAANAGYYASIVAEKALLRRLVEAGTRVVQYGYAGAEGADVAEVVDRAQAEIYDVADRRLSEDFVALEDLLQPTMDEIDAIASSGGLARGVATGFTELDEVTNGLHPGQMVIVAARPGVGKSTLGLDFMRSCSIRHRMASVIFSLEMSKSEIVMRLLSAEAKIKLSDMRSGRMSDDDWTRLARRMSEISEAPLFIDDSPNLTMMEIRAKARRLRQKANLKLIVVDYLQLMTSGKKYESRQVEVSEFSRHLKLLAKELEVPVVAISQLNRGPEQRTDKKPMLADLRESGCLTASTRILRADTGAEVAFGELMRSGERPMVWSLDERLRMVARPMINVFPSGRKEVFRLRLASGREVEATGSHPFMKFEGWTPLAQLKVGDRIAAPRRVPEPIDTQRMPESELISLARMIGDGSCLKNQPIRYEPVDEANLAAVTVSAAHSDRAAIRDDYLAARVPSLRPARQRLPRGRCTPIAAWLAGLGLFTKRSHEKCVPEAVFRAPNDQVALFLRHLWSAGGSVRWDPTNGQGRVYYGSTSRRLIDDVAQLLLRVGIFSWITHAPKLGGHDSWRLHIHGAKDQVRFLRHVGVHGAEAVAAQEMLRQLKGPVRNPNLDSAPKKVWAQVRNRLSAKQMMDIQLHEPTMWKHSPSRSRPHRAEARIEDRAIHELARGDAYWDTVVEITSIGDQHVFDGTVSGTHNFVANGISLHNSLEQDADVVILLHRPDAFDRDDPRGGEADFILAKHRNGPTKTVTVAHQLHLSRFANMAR

Calcium/calmodulin-dependent protein kinase type 1, sequence (Q14012 whole entry): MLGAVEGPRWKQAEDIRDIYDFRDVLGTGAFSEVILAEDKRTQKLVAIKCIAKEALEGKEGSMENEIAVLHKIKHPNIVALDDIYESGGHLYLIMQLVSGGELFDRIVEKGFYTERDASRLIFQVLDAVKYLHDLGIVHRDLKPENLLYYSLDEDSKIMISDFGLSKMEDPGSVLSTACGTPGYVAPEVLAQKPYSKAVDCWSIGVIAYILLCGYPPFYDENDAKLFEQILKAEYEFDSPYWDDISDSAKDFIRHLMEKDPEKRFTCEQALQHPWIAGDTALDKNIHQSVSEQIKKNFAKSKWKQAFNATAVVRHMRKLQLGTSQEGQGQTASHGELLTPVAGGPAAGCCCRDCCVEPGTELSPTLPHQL
Cyclin-dependent kinase 5, sequence (Q00535 whole entry): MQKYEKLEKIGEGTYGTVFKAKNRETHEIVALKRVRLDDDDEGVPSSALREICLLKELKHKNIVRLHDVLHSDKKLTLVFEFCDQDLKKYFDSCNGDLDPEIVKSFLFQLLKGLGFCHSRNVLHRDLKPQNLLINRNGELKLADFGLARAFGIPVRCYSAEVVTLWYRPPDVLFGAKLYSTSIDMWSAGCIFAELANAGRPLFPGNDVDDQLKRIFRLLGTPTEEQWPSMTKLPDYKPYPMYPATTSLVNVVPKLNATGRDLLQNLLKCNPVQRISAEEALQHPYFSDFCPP
Cyclin-dependent kinase 1, sequence (P06493 whole entry): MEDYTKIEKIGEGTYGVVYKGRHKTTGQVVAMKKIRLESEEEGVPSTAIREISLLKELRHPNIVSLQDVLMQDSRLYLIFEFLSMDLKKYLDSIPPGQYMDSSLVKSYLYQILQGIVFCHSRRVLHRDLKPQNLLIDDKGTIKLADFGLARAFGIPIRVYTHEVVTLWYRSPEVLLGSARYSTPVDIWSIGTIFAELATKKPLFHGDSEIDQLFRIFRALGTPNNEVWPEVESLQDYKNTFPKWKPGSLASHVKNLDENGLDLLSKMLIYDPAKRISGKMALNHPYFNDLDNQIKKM
RAC-gamma serine/threonine-protein kinase, sequence (Q9Y243 whole entry): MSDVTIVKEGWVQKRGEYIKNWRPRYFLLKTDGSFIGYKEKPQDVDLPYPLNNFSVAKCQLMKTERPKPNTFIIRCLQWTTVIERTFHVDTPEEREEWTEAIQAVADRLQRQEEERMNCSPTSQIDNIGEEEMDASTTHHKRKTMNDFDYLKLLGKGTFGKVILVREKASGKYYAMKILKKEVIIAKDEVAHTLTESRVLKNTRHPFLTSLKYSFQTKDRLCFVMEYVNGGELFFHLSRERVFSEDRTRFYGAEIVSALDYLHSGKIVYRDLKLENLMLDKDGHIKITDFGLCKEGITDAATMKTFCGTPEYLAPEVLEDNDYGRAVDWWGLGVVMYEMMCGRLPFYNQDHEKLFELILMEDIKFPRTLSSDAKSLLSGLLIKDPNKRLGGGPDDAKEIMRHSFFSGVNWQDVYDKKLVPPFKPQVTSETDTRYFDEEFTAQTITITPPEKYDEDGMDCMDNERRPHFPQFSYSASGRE
Protein kinase C iota type, sequence (P41743 whole entry): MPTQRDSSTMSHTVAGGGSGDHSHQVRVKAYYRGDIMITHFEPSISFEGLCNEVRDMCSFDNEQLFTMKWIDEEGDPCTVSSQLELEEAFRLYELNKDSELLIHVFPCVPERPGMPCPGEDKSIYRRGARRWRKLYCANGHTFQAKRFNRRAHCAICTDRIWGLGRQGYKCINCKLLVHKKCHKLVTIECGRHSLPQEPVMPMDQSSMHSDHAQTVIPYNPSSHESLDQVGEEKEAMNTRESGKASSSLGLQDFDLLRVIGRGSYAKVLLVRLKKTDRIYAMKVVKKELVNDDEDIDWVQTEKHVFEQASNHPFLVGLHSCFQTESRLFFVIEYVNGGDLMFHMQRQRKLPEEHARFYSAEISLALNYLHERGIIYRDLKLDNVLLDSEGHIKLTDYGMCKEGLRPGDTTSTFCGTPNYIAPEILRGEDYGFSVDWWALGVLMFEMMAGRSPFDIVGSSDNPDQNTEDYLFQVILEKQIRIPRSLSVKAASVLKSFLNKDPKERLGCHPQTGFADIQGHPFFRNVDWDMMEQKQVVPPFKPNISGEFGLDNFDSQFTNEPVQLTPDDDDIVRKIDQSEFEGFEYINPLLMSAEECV
3-phosphoinositide-dependent protein kinase 1, sequence (O15530 whole entry): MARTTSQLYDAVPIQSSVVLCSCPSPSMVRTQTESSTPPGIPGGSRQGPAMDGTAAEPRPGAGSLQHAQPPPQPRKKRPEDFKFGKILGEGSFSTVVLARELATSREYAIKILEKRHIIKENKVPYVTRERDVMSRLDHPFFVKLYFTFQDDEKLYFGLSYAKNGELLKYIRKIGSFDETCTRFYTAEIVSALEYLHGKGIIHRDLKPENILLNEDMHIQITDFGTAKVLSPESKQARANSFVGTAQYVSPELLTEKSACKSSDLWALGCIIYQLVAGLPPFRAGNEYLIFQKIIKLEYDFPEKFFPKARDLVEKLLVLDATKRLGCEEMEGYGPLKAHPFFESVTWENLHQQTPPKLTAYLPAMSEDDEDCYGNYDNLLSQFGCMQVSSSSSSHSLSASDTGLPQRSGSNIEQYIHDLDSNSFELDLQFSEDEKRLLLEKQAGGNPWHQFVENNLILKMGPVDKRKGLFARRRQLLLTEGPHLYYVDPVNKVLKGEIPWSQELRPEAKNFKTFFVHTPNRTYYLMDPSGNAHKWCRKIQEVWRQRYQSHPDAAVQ
Serine/threonine-protein kinase DCLK1, sequence (O15075 whole entry): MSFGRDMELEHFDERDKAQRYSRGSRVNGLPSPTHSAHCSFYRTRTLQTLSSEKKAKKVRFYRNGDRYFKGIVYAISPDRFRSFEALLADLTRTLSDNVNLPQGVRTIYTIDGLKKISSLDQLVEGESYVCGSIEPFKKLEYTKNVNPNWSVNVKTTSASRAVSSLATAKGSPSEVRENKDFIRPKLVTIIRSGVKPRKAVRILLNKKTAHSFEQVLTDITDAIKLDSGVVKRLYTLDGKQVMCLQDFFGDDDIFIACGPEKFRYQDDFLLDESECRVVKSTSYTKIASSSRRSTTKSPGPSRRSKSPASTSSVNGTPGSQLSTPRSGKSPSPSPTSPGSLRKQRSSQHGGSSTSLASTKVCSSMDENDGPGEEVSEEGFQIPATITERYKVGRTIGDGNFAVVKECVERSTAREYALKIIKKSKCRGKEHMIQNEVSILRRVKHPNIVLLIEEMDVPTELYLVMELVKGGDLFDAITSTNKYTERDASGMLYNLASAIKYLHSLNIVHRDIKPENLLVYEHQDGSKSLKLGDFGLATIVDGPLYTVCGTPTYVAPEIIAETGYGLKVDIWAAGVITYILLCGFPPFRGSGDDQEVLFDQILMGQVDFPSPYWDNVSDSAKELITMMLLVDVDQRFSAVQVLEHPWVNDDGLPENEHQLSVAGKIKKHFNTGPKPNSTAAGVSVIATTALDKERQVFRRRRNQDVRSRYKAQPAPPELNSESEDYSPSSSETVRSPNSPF
Serine/threonine-protein kinase pim-2, sequence (Q9P1W9 whole entry): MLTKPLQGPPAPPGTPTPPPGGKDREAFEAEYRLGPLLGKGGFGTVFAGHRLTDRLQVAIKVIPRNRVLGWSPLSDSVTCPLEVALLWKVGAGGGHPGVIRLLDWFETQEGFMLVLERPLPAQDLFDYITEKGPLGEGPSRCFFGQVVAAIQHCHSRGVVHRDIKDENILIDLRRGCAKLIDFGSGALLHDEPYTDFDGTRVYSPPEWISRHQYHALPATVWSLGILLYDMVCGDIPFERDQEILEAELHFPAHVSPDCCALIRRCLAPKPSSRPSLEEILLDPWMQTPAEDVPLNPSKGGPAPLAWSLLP
STE20-like serine/threonine-protein kinase, sequence (Q9H2G2 whole entry): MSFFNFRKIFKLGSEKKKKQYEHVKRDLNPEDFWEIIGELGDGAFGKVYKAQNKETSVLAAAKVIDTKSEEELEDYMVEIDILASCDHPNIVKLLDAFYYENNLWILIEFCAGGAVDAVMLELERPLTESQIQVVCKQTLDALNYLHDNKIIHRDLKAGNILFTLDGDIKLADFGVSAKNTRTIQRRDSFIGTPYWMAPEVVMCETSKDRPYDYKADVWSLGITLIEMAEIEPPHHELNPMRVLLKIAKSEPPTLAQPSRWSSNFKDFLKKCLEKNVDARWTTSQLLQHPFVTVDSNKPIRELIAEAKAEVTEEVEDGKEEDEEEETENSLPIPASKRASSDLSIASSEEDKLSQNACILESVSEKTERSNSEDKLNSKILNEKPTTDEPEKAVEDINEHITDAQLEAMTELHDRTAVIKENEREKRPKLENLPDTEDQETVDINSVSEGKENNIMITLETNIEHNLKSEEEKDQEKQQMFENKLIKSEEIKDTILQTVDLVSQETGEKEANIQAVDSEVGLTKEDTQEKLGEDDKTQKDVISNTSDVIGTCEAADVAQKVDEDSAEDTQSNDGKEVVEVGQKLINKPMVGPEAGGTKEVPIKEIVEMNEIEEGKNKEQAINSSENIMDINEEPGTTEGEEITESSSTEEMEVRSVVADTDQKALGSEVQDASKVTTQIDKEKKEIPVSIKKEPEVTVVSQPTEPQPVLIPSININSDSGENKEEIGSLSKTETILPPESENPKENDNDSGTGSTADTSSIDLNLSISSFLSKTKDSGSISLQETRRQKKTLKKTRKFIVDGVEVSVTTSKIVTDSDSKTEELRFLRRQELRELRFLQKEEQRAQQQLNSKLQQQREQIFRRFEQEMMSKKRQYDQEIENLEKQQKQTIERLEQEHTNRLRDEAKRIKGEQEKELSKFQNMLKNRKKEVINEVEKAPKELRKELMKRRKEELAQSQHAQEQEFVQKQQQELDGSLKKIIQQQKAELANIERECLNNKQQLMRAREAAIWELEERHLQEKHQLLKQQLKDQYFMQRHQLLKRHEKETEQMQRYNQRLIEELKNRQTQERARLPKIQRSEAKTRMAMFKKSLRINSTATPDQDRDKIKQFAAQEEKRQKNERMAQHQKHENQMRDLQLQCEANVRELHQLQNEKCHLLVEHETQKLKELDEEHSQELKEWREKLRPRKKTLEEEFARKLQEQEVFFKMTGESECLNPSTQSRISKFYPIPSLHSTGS

In the case of CS(=O)(=O)N(Cc1ccc2[nH]c(=O)c3cccn3c2c1)C1CC1, the Ki [1] is reported as 79.4 nM (active), the Ki [2] is reported as 200 nM (active) and the Ki [3] is reported as 79.4 nM (active). For the same molecule, the Ki [4] was 316 nM (active), the Ki [5] was > 6310 nM (inactive) and the Ki [6] was 2000 nM (active). The Ki [7] was 31.6 nM (active), the Ki [8] was 50.1 nM (active) and the Ki [9] was > 2000 nM (inactive). The Ki [10] was > 5010 nM (inactive), the Ki [11] was 3160 nM (active) and the Ki [12] was > 1580 nM (inactive). For the same molecule, the Ki [13] was > 6310 nM (inactive), the Ki [14] was > 10000 nM (inactive) and the Ki [15] was 15.8 nM (active). The Ki [16] was > 10000 nM (inactive), the Ki [17] was 31.6 nM (active) and the Ki [18] was > 7940 nM (inactive). The Ki [19] was 251 nM (active), the Ki [20] was > 5010 nM (inactive) and the Ki [21] was > 7940 nM (inactive). For the same molecule, the Ki (Ephrin type-A receptor 2) was > 3160 nM (inactive) and the Ki [22] was 79.4 nM (active).

With Cc1cc(NC(c2ccc(Cl)cc2)c2ccc3cccnc3c2O)no1 (stereo not drawn) the EC50 [23] was 741 nM (active), the EC50 (Streptococcus) was 15000 nM (active) and the EC50 (Streptokinase A) was > 150000 nM (not active). The AC50 [24] was 1050 nM (active).

For OCC[n+]1c2ccccc2nc2ccc(N3CCOCC3)cc21, the AC50 [25] was > 380000 nM (inactive).
